± gives the standard deviation of the averaged measurements.
Experiments:
Conditions in all cases: exposure: 6-8 hpf to 5 dpf, scored at 6 dpf
Danio rerio embryo/larva [1] = assay: max % larvae with edema across tested concentrations; higher = more toxic; extreme values may be limits of the assay
Danio rerio embryo/larva [2] = assay: max % larvae generally abnormal across tested concentrations; higher = more toxic; extreme values may be limits of the assay
Danio rerio embryo/larva [3] = assay: max % larvae with blood pooling across tested concentrations; higher = more toxic; extreme values may be limits of the assay
Danio rerio embryo/larva [4] = assay: max % larvae with uninflated swim bladder across tested concentrations; higher = more toxic; extreme values may be limits of the assay
Danio rerio embryo/larva [5] = assay: max % larvae with spinal defects across tested concentrations; higher = more toxic; extreme values may be limits of the assay
Danio rerio embryo/larva [6] = assay: max % larvae with craniofacial defects across tested concentrations; higher = more toxic; extreme values may be limits of the assay
Danio rerio embryo/larva [7] = assay: max % larvae with pigmentation defects across tested concentrations; higher = more toxic
Danio rerio embryo/larva [8] = assay: max % larvae with tail defects across tested concentrations; higher = more toxic; extreme values may be limits of the assay
Danio rerio embryo/larva [9] = assay: max % larvae with abnormal position across tested concentrations; higher = more toxic; extreme values may be limits of the assay

| SMILES | max % larvae (Danio rerio embryo/larva [1]) [%] | max % larvae generally abnormal across tested concentrations (Danio rerio embryo/larva [2]) [%] | max % larvae (Danio rerio embryo/larva [3]) [%] | max % larvae (Danio rerio embryo/larva [4]) [%] | max % larvae (Danio rerio embryo/larva [5]) [%] | max % larvae (Danio rerio embryo/larva [6]) [%] | max % larvae (Danio rerio embryo/larva [7]) [%] | max % larvae (Danio rerio embryo/larva [8]) [%] | max % larvae (Danio rerio embryo/larva [9]) [%] |
| --- | --- | --- | --- | --- | --- | --- | --- | --- | --- |
| C=CC(=O)OCC(F)(F)C(F)(F)C(F)(F)COC(=O)C=C [1H,1H,5H,5H-Perfluoro-1,5-pentanediol diacrylate] (max tested concentration (log10 uM): 1) | 33.3 | 33.3 | 0 | 16.7 | 8.33 | 33.3 | 0 | 25 | 0 |
| OCC(F)(F)C(F)(F)C(F)(F)C(F)F [1H,1H,5H-Perfluoropentanol] (max tested concentration (log10 uM): 2) | 0 | 0 | 0 | 0 | 0 | 0 | 0 | 0 | 0 |
| C=C(C)C(=O)OCC(F)(F)C(F)(F)C(F)(F)C(F)F [1H,1H,5H-Perfluoropentyl methacrylate] (max tested concentration (log10 uM): 2) | 25 | 25 | 0 | 33.3 | 4.17 | 16.7 | 0 | 16.7 | 0 |
| OCC(F)(F)C(F)(F)C(F)(F)C(F)(F)C(F)(F)C(F)F [1H,1H,7H-Dodecafluoro-1-heptanol] (max tested concentration (log10 uM): 2) | 8.33 | 8.33 | 0 | 0 | 0 | 0 | 0 | 0 | 0 |
| OCC(F)(F)OC(F)(F)C(F)(F)OC(F)(F)CO [1H,1H,8H,8H-Perfluoro-3,6-dioxaoctane-1,8-diol] (max tested concentration (log10 uM): 2) | 0 | 0 | 0 | 0 | 0 | 0 | 0 | 0 | 0 |
| C=CC(=O)OCC(F)(F)C(F)(F)C(F)(F)C(F)(F)C(F)(F)C(F)(F)C(F)(F)C(F)F [1H,1H,9H-Perfluorononyl acrylate] (max tested concentration (log10 uM): 2) | 9.09 | 9.09 | 0 | 16.7 | 0 | 9.09 | 0 | 2.27 | 4.55 |
| OCC(F)(F)OC(F)(F)C(F)(F)OC(F)(F)C(F)(F)OC(F)(F)CO [1H,1H,11H,11H-Perfluorotetraethylene glycol] (max tested concentration (log10 uM): 1.47712) | 0 | 0 | 0 | 0 | 0 | 0 | 0 | 0 | 0 |
| NCC(F)(F)C(F)(F)C(F)(F)C(F)(F)C(F)(F)C(F)(F)C(F)(F)C(F)(F)F [1H,1H-Perfluorononylamine] (max tested concentration (log10 uM): 1.60206) | 50 | 75 | 50 | 50 | 0 | 50 | 0 | 0 | 25 |
| C=CC(=O)OCC(F)(F)C(F)(F)C(F)(F)C(F)(F)C(F)(F)C(F)(F)C(F)(F)F [1H,1H-Perfluorooctyl acrylate] (max tested concentration (log10 uM): 2) | 0 | 0 | 0 | 0 | 0 | 0 | 0 | 0 | 0 |
| NCC(F)(F)C(F)(F)C(F)(F)C(F)(F)C(F)(F)C(F)(F)C(F)(F)F [1H,1H-Perfluorooctylamine] (max tested concentration (log10 uM): 2) | 22.5 ± 32 | 20 ± 28 | 0 | 20 ± 28 | 0 | 15 ± 21 | 0 | 0 | 0 |
| FC(F)(F)C(F)(F)C(F)(F)C(F)(F)C(F)(F)C(F)(F)CCS [2-(Perfluorohexyl)ethanethiol] (max tested concentration (log10 uM): 1.60206) | 8.33 | 8.33 | 0 | 16.7 | 0 | 0 | 0 | 0 | 0 |
| C=C(C)C(=O)OCCC(F)(F)C(F)(F)C(F)(F)C(F)(F)C(F)(F)C(F)(F)F [2-(Perfluorohexyl)ethyl methacrylate] (max tested concentration (log10 uM): 2) | 0 | 0 | 0 | 0 | 0 | 0 | 0 | 0 | 0 |
| OCCC(F)(F)C(F)(F)C(F)(F)C(F)(F)C(F)(F)C(F)(F)C(F)(F)C(F)(F)F [2-(Perfluorooctyl)ethanol] (max tested concentration (log10 uM): 2) | 19.4 | 22.2 | 0 | 44.4 | 0 | 0 | 0 | 0 | 8.33 |

— the supplement of paper PMC11281043
